Measured values: the NIST ThermoML archive (doi:10.1021/acs.jced.6b00606)

How the values were obtained:
[1] = xn = mol fraction of the nth substance listed; conditions: 100 kPa, Liquid; for speed of sound: Frequency=3 MHz, Sing-around technique in a fixed-path interferometer; for mass density: Vibrating tube method
[2] = excess molar enthalpy (molar enthalpy of mixing); xn = mol fraction of the nth substance listed; conditions: 308.15 K, 100 kPa, Liquid, Calvet calorimetry

O=C1CCCCC1 [cyclohexanone] + C1COCCO1
[1]
Conditions | mass density, 293.15 K [kg/m3] | mass density, 298.15 K [kg/m3] | mass density, 303.15 K [kg/m3] | mass density, 308.15 K [kg/m3] | speed of sound, 293.15 K [m/s] | speed of sound, 298.15 K [m/s] | speed of sound, 303.15 K [m/s] | speed of sound, 308.15 K [m/s]
x2 = 0.0999 | 953.66 | 949.13 | 944.25 | 939.34 | 1423.2 | 1407.2 | 1387 | 1367.1
x2 = 0.1548 | 957.29 | 952.73 | 947.83 | 942.9 | 1419 | 1402.8 | 1382.6 | 1362.7
x2 = 0.2064 | 960.83 | 956.23 | 951.32 | 946.37 | 1415.2 | 1398.7 | 1378.5 | 1358.7
x2 = 0.2523 | 964.08 | 959.45 | 954.52 | 949.56 | 1411.8 | 1395.1 | 1374.9 | 1355
x2 = 0.3087 | 968.21 | 963.55 | 958.59 | 953.6 | 1407.8 | 1390.8 | 1370.6 | 1350.6
x2 = 0.3412 | 970.67 | 965.97 | 960.99 | 955.99 | 1405.5 | 1388.3 | 1368.1 | 1348.1
x2 = 0.3952 | 974.86 | 970.12 | 965.11 | 960.08 | 1401.8 | 1384.3 | 1364 | 1343.9
x2 = 0.4315 | 977.76 | 972.99 | 967.96 | 962.9 | 1399.3 | 1381.6 | 1361.3 | 1341.2
x2 = 0.4875 | 982.38 | 977.54 | 972.47 | 967.38 | 1395.6 | 1377.6 | 1357.2 | 1336.9
x2 = 0.5348 | 986.41 | 981.52 | 976.42 | 971.29 | 1392.5 | 1374.2 | 1353.8 | 1333.5
x2 = 0.5798 | 990.36 | 985.42 | 980.28 | 975.11 | 1389.7 | 1371.1 | 1350.6 | 1330.2
x2 = 0.6145 | 993.49 | 988.51 | 983.33 | 978.13 | 1387.5 | 1368.7 | 1348.2 | 1327.7
x2 = 0.6698 | 998.63 | 993.56 | 988.34 | 983.08 | 1384.1 | 1365 | 1344.4 | 1323.8
x2 = 0.7148 | 1002.9 | 997.82 | 992.55 | 987.23 | 1381.5 | 1362 | 1341.4 | 1320.7
x2 = 0.7682 | 1008.2 | 1003 | 997.69 | 992.32 | 1378.5 | 1358.7 | 1338 | 1317.1
x2 = 0.8015 | 1011.6 | 1006.4 | 1001 | 995.58 | 1376.8 | 1356.7 | 1335.9 | 1314.9
x2 = 0.8542 | 1017.2 | 1011.8 | 1006.4 | 1000.8 | 1374.1 | 1353.6 | 1332.7 | 1311.5
x2 = 0.9054 | 1022.7 | 1017.3 | 1011.7 | 1006.2 | 1371.7 | 1350.8 | 1329.6 | 1308.3

[2]
Conditions | excess molar enthalpy [kJ/mol]
x2 = 0.0792 | 0.0817
x2 = 0.1286 | 0.124
x2 = 0.1749 | 0.16
x2 = 0.2236 | 0.192
x2 = 0.2743 | 0.22
x2 = 0.3289 | 0.245
x2 = 0.3729 | 0.262
x2 = 0.4298 | 0.279
x2 = 0.4715 | 0.287
x2 = 0.5242 | 0.293
x2 = 0.5735 | 0.293
x2 = 0.6199 | 0.289
x2 = 0.7182 | 0.262
x2 = 0.7628 | 0.241
x2 = 0.8193 | 0.205
x2 = 0.8672 | 0.165
x2 = 0.9173 | 0.113
